Legend:
Assay in all cases: relative viability (nuclei count vs DMSO), 5 days (fraction); higher = more cells survive
Linifanib + Phenformin = compound: Cc1ccc(F)c(NC(=O)Nc2ccc(-c3cccc4[nH]nc(N)c34)cc2)c1 [Linifanib] + N=C(N)NC(=N)NCCc1ccccc1 [Phenformin] (partner 250 µM)
Method in brief: (§1)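 Relative viability is defined as nuclei in treated wells over nuclei in vehicle wells. Duplicate plates were run and medians reported. Lung cancer cell lines in 1536-well plates were dosed by pin tool one day after seeding, with one drug or with a fixed anchor-drug dose plus five library-drug doses (not always all listed) in √10 steps, and nuclei were counted after 5 days.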

Linifanib + Vorinostat = compound: Cc1ccc(F)c(NC(=O)Nc2ccc(-c3cccc4[nH]nc(N)c34)cc2)c1 [Linifanib] + O=C(CCCCCCC(=O)Nc1ccccc1)NO [Vorinostat] (partner 1 µM)
Method in brief: as §1

Linifanib + Olaparib = compound: Cc1ccc(F)c(NC(=O)Nc2ccc(-c3cccc4[nH]nc(N)c34)cc2)c1 [Linifanib] + O=C(c1cc(Cc2n[nH]c(=O)c3ccccc23)ccc1F)N1CCN(C(=O)C2CC2)CC1 [Olaparib] (partner 8 µM)
Method in brief: as §1

Linifanib + AZD7762 = compound: Cc1ccc(F)c(NC(=O)Nc2ccc(-c3cccc4[nH]nc(N)c34)cc2)c1 [Linifanib] + NC(=O)Nc1cc(-c2cccc(F)c2)sc1C(=O)N[C@H]1CCCNC1 [AZD7762] (partner 0.2 µM)
Method in brief: as §1

Linifanib = compound: Cc1ccc(F)c(NC(=O)Nc2ccc(-c3cccc4[nH]nc(N)c34)cc2)c1 [Linifanib]
Method in brief: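 Nuclei counted with MetaXpress define viability as the ratio of treated to vehicle wells, given as a median across plates. The lung cancer cell lines were in 1536-well plates, pinned with five √10-spaced library-drug doses and imaged at 4× after 5 days and Hoechst staining. Plates passed with control CV below 25% and at least one doubling.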

Linifanib + Linsitinib = compound: Cc1ccc(F)c(NC(=O)Nc2ccc(-c3cccc4[nH]nc(N)c34)cc2)c1 [Linifanib] + C[C@]1(O)C[C@@H](c2nc(-c3ccc4ccc(-c5ccccc5)nc4c3)c3c(N)nccn32)C1 [Linsitinib] (partner 1 µM)
Method in brief: as §1

Cell Line	relative viability (Linifanib + Phenformin; first compound 0.03162 µM)	relative viability (Linifanib + Phenformin; first compound 0.1 µM)	relative viability (Linifanib + Phenformin; first compound 0.3162 µM)	relative viability (Linifanib + Vorinostat; first compound 0.03162 µM)	relative viability (Linifanib + Vorinostat; first compound 0.1 µM)	relative viability (Linifanib + Vorinostat; first compound 0.3162 µM)	relative viability (Linifanib + Olaparib; first compound 0.03162 µM)	relative viability (Linifanib + Olaparib; first compound 0.1 µM)	relative viability (Linifanib + Olaparib; first compound 0.3162 µM)	relative viability (Linifanib + AZD7762; first compound 0.03162 µM)	relative viability (Linifanib + AZD7762; first compound 0.1 µM)	relative viability (Linifanib + AZD7762; first compound 0.3162 µM)	relative viability (Linifanib; 0.03162 µM)	relative viability (Linifanib; 0.1 µM)	relative viability (Linifanib; 0.3162 µM)	relative viability (Linifanib + Linsitinib; first compound 0.03162 µM)	relative viability (Linifanib + Linsitinib; first compound 0.1 µM)	relative viability (Linifanib + Linsitinib; first compound 0.3162 µM)
NCI-H2170	0.426	0.411	0.378	0.806	0.814	0.823	0.612	0.701	0.566	0.831	0.954	0.843	0.989	1.01	0.928			
SK-LU-1	0.528	0.622	0.58	0.74	0.749	0.828	0.467	0.558	0.456				1.07	1.11	1.01	0.932	1.02	0.981
NCI-H650	0.45	0.449	0.439	0.513	0.409	0.358	0.348	0.397	0.361	0.947	0.99	0.675	1.1	1.11	0.972	1	1.07	0.851
LOU-NH91	0.734	0.806	0.732	0.969	0.975	0.943	0.909	0.956	0.869	0.752	0.816	0.739	0.979	1.07	0.951	0.899	1.01	0.954
LK-2	0.447	0.691	0.4	0.286	0.529	0.283	0.694	0.759	0.732	0.618	0.504	0.376	1.05	1.12	0.965	0.516	0.502	0.536
LC-2-ad	0.645	0.609	0.505	0.83	0.7	0.73	0.729	0.705	0.55	0.871	0.878	0.804	0.996	0.996	0.88	0.691	0.851	0.766
NCI-H2085	0.878	0.786	0.712	0.854	0.832	0.792	0.727	0.803	0.739	1.08	0.943	0.974	1.02	1.06	1.01	0.895	0.913	0.835
H3255	0.345	0.203	0.438	0.788	0.795	0.812	0.619	0.567	0.574	0.868	0.925	0.853	1.04	1.01	1.02	0.976	1.14	0.845
UMC-11	0.334	0.327	0.326	0.334	0.315	0.354	0.388	0.485	0.374				0.979	1.02	0.878	0.921	1.06	0.911
NCI-H1395	0.444	0.454	0.414	0.824	0.71	0.633	0.462	0.463	0.461	0.39	0.431	0.395	0.956	0.983	0.868	1.06	1.08	1.09
NCI-H1993	0.44	0.514	0.504	1.08	0.958	0.825	1.03	1.13	0.963	0.974	0.894	0.831	0.89	1.2	0.946	0.749	0.691	0.788
NCI-H1650	0.428	0.571	0.412	0.528	0.602	0.655	0.78	0.971	0.753				0.965	0.966	0.89			
ChaGo-K-1	0.488	0.581	0.478	0.767	0.807	0.775	0.456	0.445	0.448	0.881	0.881	0.925	1.07	1.01	0.983			
SW 1573	0.411	0.363	0.438	0.909	0.93	0.594	0.463	0.498	0.505				0.98	1.08	0.963	0.853	0.845	0.743
NCI-H661	0.288	0.281	0.313	0.792	0.751	0.75	0.771	0.783	0.7				1.02	0.977	0.962	0.505	0.676	0.467
NCI-H2009	0.483	0.493	0.459	0.695	0.781	0.743	0.675	0.705	0.671				1.08	0.972	0.987	1.15	1.19	1.13
SK-MES-1	0.704	0.692	0.653	1.13	1.05	1.05	0.636	0.795	0.71				0.969	1.08	0.965	1.04	1.12	1.03
NCI-H2023	0.398	0.479	0.392	0.655	0.807	0.612	0.518	0.615	0.46				0.972	1.09	1.02	0.681	0.676	0.652

From the supplement of paper PMC10307832
